Reference: paper PMC10017027, “Design and Synthesis of Novel HIV-1 NNRTIs with Bicyclic Cores and with Improved Physicochemical Properties” (Journal of Medicinal Chemistry, 2023)
Values after ≈ are worked out from the molar mass of the structure shown. Like-named read-outs stand apart in the source and are kept apart here.

What was measured:
[1] = Solubility assessment, shake-flask method; assay type: physicochemical; details: for solubility: shake-flask
Method: Compound solubility was measured at Analiza (Cleveland, OH) by the standard shake-flask method at pH 1.2 and 7.4 and quantitated by HPLC-UV.

[2] = Predicted clearance in human liver microsomes; assay type: in vitro ADME; details: pH 7.4, 1 μM compound, read-out: HLM CLint, pred (converted)
Method: Next, microsome stability was profiled in purified human liver microsomes (HLM).
Metabolic stability of compounds was assessed using HLM (Corning cat. 457117).[52] In this assay, 10 nL compounds at a concentration of 1 mM in 100% DMSO are dispensed into 384-well polypropylene plates using the Echo 550 acoustic liquid dispenser (Labcyte). Each plate contains 384 wells with a single test compound in each well.
A solution of HLM at 2 mg/mL in 100 mM K2HPO4/KH2PO4 pH 7.4 with 0.0225 mg/mL Alamethicin from Trichoderma viride (Sigma-Aldrich cat. A4665-10MG) was incubated on ice for 15 min. 5 μL of this solution was added to individual wells following 15 min incubation at room temperature; and supplemented with 5 μL NADPH Regenerating Solution of cofactors (Corning Gentest UGT Reaction Mix solutions A and B, cat. 451200 and 451220) containing 100 mM K2HPO4/KH2PO4 pH 7.4, 2.6 mM NADP^+, 6.6 mM glucose-6-phosphate, 6.6 mM MgCl2, 0.8 U/mL glucose-6-phosphate dehydrogenase, 0.1 mM sodium citrate, and 6.8 mM uridine diphosphate-glucuronic acid. The final concentration of analyte compounds at the beginning of the reactions was 1 μM. The reactions were incubated at 37 °C, and time points of 0, 5, 15, 30, 40, 50, 60, and 70 min were collected for further analysis. Background data were collected using reactions without analyte compounds.
Upon collection of the reaction time points, samples were quenched at the set time points with 30 μL of a solution of 72% acetonitrile, 8% methanol, 0.1% formic acid, 19.9% water, and labetalol as an internal standard (IS) at a concentration of 650 nM. Reaction plates were span in a centrifuge at a speed of 4000 rcf for 30 min and 4 °C, following a dilution of the 10 μL quenched reaction into 40 μL de-ionized water, yielding assay plates.
Samples were analyzed by a solid-phase extraction coupled with a quadrupole time-of-flight mass spectrometer, using an Agilent QToF 6530 RapidFire 360 system with C4 type A solid state cartridges. Analysis was performed in either positive or negative ionization modes. Mobile phases contained 0.1% formic acid in water for loading analytes onto solid state extraction cartridges, and 0.1% formic acid in acetonitrile for elution into the mass spectrometer in positive ionization mode, or 0.1% acetic acid in water for loading and 0.1% acetic acid in acetonitrile for extraction in negative ionization mode. Peak-area ratios of integrated counts for individual compounds to IS were plotted as a semi-logarithmic chart of log versus time. Initial, linear portion of decay was fitted to a linear regression equation to derive the half-time of a compound decay.
Pharmacological parameters for an analyte compound metabolism were calculated using the equations described in Table S2.
Table S2. Pharmacological parameters for an analyte compound metabolism were
calculated using the following equations:
Intrinsic Clearance (in Cl = ln 2
int, in vitro T1/2 ∗ Conc
Intrinsic Clearance Cl = Clint, in vitro ∗ Liver Mass ∗ Yield
Predicted Hepatic Cl = Clint ∗ QH
QH (Hepatic Blood Flow) = 1.3 L/hr/kg

[3] = test system: HIV-1 (IIIB strain); experiment: MT-4 antiviral cytopathic effect assay, HIV-1 IIIB; assay type: cell-based
Method: The prepared compounds were tested for their anti-HIV-1 activity (Table 1). A viral cytopathic effect assay in MT-4 cells with HIV-1 IIIB virus was used to determine compound potency (EC50, 50% cell viability) in protecting virus induced cell killing. Compound cytotoxicity was assessed in MT-4 cells in the absence of virus (CC50, 50% cytotoxicity).
Compounds were tested in a high-throughput 384-well assay format for their ability to inhibit the virus replication-induced cytopathic effect in MT-4 cell cultures acutely infected with HIV-1 (IIIB strain), HXB2, HXB2-K103N, and HXB2-Y181C. Compounds were serially diluted (1:3) in DMSO on 384-well polypropylene plates and further diluted 200-fold into complete RPMI media (10% FBS, 1% P/S) using Biotek Micro Flow and an Agilent ECHO acoustic dispenser. Each plate contained up to eight test compounds, with negative (no drug control) and 5 μM AZT positive controls. MT-4 cells were further diluted in complete RPMI media and added to each plate using a Micro-Flo dispenser. After five days of incubation in a humidified and temperature-controlled incubator (37 °C), Cell Titer Glo (Promega) was added to the assay plates to quantify the amount of […]. EC50 and CC50 values were defined as the compound concentration that causes a 50% decrease in luminescence signal and were calculated using a sigmoidal dose-response model to generate curve fits.

[4] = MDCK permeability assay (A to B); assay type: in vitro ADME, Canine; details: dog, MDCK
Source text: Compounds were further tested in a Madin–Darby Canine Kidney (MDCK) assay to evaluate their potential for oral absorption. […] Additionally, there was no trend for better permeability when comparing arm I versus arm II when matched with the same core. The size of the B ring had the greatest influence on Papp with the trend being five-membered > six-membered > seven-membered rings (Table 1).
cMdr1-KO cells were maintained in Dulbecco’s modified Eagle’s medium (DMEM) with sodium pyruvate and GlutaMax, supplemented with 1% Pen/Strep and 10% fetal bovine serum in an incubator set at 37 °C, 90% humidity, and 5% CO2. MDCKII- cMdr1-KO cells were grown to confluence over 3 days on 96-well PET plates with 1 μm pore size, polyester membrane (Corning 3392). Experiments were run using HBSS donor buffer from Invitrogen containing an additional 10 mM HEPES, 15 mM glucose, and 0.1% BSA adjusted to pH 7.4. The receiver well had HBSS buffer supplemented with 1% BSA, 10 mM HEPES, 15 mM glucose, and the pH was adjusted to 7.4. TEER values were read to test membrane integrity at the beginning of the assay. The experiment was started by the addition of dosing solutions containing test compounds. Samples were taken from the donor compartment at 0/120 min and from the receiver compartment at 120 min. Each compound was tested in two separate replicate wells. All samples were immediately collected in a 72:8:20 MeCN/MeOH:H2O mix to precipitate protein and stabilize the test compounds. Cells were dosed on the apical side to determine forward (A to B) permeability. To test for non-specific binding and compound instability, the total amount of drug was quantified at the end of the experiment and compared to the material present in the original dosing solution as a percentage of recovery. Samples were analyzed by RF-QToF.

Question: With `Cc1cc(C#N)cc(C)c1N1CC(=O)Nc2cnc(Nc3ccc(C#N)cc3)nc21` [Compound 3, 4-(2-((4-Cyanophenyl)amino)-6-oxo-6,7-dihydropteridin-8(5H)-yl)-3,5-dimethylbenzonitrile] as the compound, how does the solubility thermodynamic ([1]; HCl, pH 1.2, supplement CSV, read-out: HCl sol) read?
Answer: > 100 µM

Question: What about the solubility ([1]; HCl, pH 1.2, read-out: solubility HCl) of the same compound?
Answer: > 100 µM

Question: And the solubility ([1]; phosphate-buffered saline, pH 7.4, read-out: solubility PBS)?
Answer: 2.3 µM (≈ 0.909 µg/mL)

Question: And the aqueous solubility ([1]; preliminary data, in words)?
Answer: significantly improved

Question: What about the PBS sol ([1]; supplement CSV) of the same compound?
Answer: 2.3 µM

Question: And the CLint scaled at 1.167 h, 1 µM [2]?
Answer: 18.3 mL/min/kg

Question: And the EC50 ([3]; Human immunodeficiency virus 1, HXB2 / IIIB, range over HIV-1 IIIB and HXB2, read-out: EC50 against both wild-type viruses)?
Answer: 8.1 to 8.6 nM

Question: And the EC50 ([3]; Human immunodeficiency virus 1, IIIB, MT4, protects 50% of MT-4 cells against HIV-1-induced cell killing, HIV-1 IIIB, WT, read-out: EC50 MT4)?
Answer: 8.6 nM

Question: And the “activity against the WT virus” value ([3]; preliminary biological data, in words)?
Answer: low nanomolar activity

Question: What about the Papp A→B at 120 min ([4]; supplement CSV) of the same compound?
Answer: 4.1 ×10⁻⁶ cm/s

Question: What about the Papp A→B at 120 min ([4]; apparent permeability coefficient, A to B, pH 7.4) of the same compound?
Answer: 4.1 ×10⁻⁶ cm/s
